Where two headings read alike, the source gives them in different places.
Experiments:
[1] = Plasma protein binding, mouse; conditions: Xenon in-house data
Excerpt: (§1) PPB data is available in Supplemental Table S1.
(§2) Supplemental Table S1. Summary of effective plasma concentrations, plasma protein binding (PPB), and unbound plasma concentrations (Cp,u) for the ASMs tested in mice, rats and humans.
(§3) *For mouse and rat, plasma EC50 from the MES assay at one time point after a single dose is shown. For human, literature-reported therapeutic plasma concentrations are shown. […]
(§4) mouse, for which published data were used. For human, published data is shown.
(§5) *** Cp,u values for rodents have been calculated based on MES EC50. Cp,u values for humans represent the lower and upper bounds of reported therapeutic plasma concentrations, adjusted for PPB, as reported in clinical pharmacokinetic

[2] = Plasma protein binding, rat; conditions: Xenon in-house data
Excerpt: as §1, §2, §3, §4, §5

MES-induced seizures [3] = test: animal or person; type: in vivo
Experimental: (§6) Animals were group-housed (2–4 mice or 3–4 rats per cage) in plastic cages and maintained under controlled temperature (18–25 °C), humidity, ventilation, and lighting (12 h light/dark cycle). They had free access to water and Certified Rodent Chow (Teklad Rodent Chow). Upon arrival, the animals were examined to ensure good health status and were acclimated to the facility for at least 5 days before being subjected to the MES protocol. All experiments were conducted in accordance with guidelines set by the Canadian Council on Animal Care and approved by the Xenon Animal Care Committee.
(§7) Drugs were administered by the intraperitoneal route (IP; dissolved in sterile saline) or oral route (PO; dissolved in 0.5% methylcellulose + 0.2% Tween 80 in DI water) in a volume of 10 mL/kg. Control animals received the appropriate vehicle. The doses and pre-treatment times for each drug, detailed in Table 2, were determined based on in-house data or, in some cases, from the publicly available PANACHE database.
(§8) The MES assay is widely used in the search for anticonvulsant substances. This animal model for generalized tonic–clonic seizures assesses a compound’s ability to prevent seizure spread. […] Before the electroshock stimulation, the eyes were anesthetized with a topical application of 0.5% proparacaine hydrochloride (one drop per eye). Animals were then restrained; the corneal electrodes were applied, and the shock was administered. An MES-induced seizure was characterized by an initial generalized tonic seizure with a hindlimb tonic extensor component.
(§9) The protocols for administering PO or IP doses of the vehicle or drug are described in […]. These doses were administered 0.5–2 h before the application of electric stimulation. An animal was considered protected from MES-induced seizures if the hindlimb tonic extensor component of the seizure was abolished, and it was scored as “0”. […] Seizure induction and scoring were performed by an experimenter who was blinded to treatment conditions.
(§10) After being subjected to the stimulation protocol, rodents were anesthetized by isoflurane inhalation until they reached a surgical plane of anesthesia. Approximately 0.5 mL of blood was collected via cardiac puncture and transferred to EDTA-coated tubes on ice. Animals were then euthanized by cervical dislocation, and their brains were removed, weighed, and immediately frozen on dry ice. At the end of sample collection, blood was centrifuged at 4000 rpm for 10 min at 4 °C, and the plasma was separated. All samples were stored at −80 °C until the time of bioanalysis.
(§11) Plasma samples were extracted for analysis using a protein precipitation method with acetonitrile. A total of 50 µL of diluted plasma samples was mixed with 50 µL of an internal standard (IS) solution in a 1:1 mixture of acetonitrile and water. A total of 200 µL of acetonitrile was then added to the mixture, which was vortexed for 30 s. The samples were centrifuged at 13,000 rpm for 20 min, decanted into a 96-well plate, and further centrifuged at 4000 rpm for 20 min. The samples were then analyzed using ultra-high-performance electrospray ionization tandem mass spectrometry (UHPLC-ESI-MS/MS).
(§12) Brains were homogenized in a 1:1 mixture of acetonitrile and water (2 mL per mouse brain) using the T18 ULTRA-TURRAX (IKA, Staufen im Breisgau, Germany) homogenizer for about 1 min. The homogenate was centrifuged at 13,000 rpm for 20 min, and 50 µL of the supernatant was treated in the same way as the plasma samples for analysis.
(§13) At 1.5 min, the mobile phase composition was switched back to 50% B at 1.6 min and then held at 50% B until 2.5 min. The flow rate used throughout the experiment was 0.4 mL/min. […] Each compound was matched with a proprietary co-eluting internal standard. The UHPLC-ESI MS/MS system was controlled, and samples were quantified using Analyst 1.6.

MES-induced seizures [4] = test: animal or person; type: in vivo; conditions: mouse MES; single dose, route and pre-treatment time per Table 2 (PO or IP, 0.25-2 h); read-out: ED50 (median effective dose)
[5] = human, cited from earlier work; for Effective plasma concentration: literature-reported therapeutic plasma concentrations ref 36-47; for Cp,u (unbound therapeutic plasma concentration): lower and upper bounds of therapeutic plasma concentrations adjusted for PPB ref 36-47
[6] = human plasma; published data ref 36-47; cited from earlier work
MES-induced seizures [7] = test: Alternating current maximal electroshock seizure assay (AC-MES) in rats with plasma and brain exposure; type: in vivo, Sprague-Dawley rats; conditions: for ED50: single PO dose, pre-treatment 0.5-2 h per Table 2, read-out: ED50 (median effective dose)
Experimental: as §6, §7, §8, §9, §10, §11, §12, §13

[8] = Brain-to-plasma ratio in mice; conditions: CF-1, mouse
Experimental: as §10, §11, §12, §13

[9] = Brain-to-plasma ratio in rats; conditions: Sprague-Dawley, rat
Experimental: as §10, §11, §12, §13

[10] = mouse plasma, cited from earlier work
[11] = set-up: method as in earlier work; conditions: rat plasma; published data ref 34; cited from earlier work
[12] = mouse MES, brain concentration for 50% probability of seizure protection, read-out: EC50 Brain
[13] = mouse MES, plasma concentration for 50% probability of seizure protection, one time point after single dose, read-out: EC50 Plasma
[14] = mouse, calculated based on MES EC50 and PPB, read-out: Cp,u EC50 (unbound plasma concentration)
[15] = rat MES, brain concentration for 50% probability of seizure protection, read-out: EC50 Brain
[16] = rat MES, plasma concentration for 50% probability of seizure protection, one time point after single dose, read-out: EC50 Plasma
[17] = rat, calculated based on MES EC50 and PPB, read-out: Cp,u EC50 (unbound plasma concentration)
[18] = Rattus norvegicus, read-out: Cp,u EC50 (unbound plasma concentration)
[19] = Rattus norvegicus, read-out: EC50 Brain
[20] = Rattus norvegicus, read-out: EC50 Plasma

| Compound | PPB (% bound) [1] [% bound] | PPB (% bound) [2] [% bound] | EC50 (MES-induced seizures [3]; [12]) [µM] | EC50 (MES-induced seizures [3]; [13]) [µM] | EC50 (MES-induced seizures [3]; [14]) [µM] | ED50 (MES-induced seizures [4]) [mg/kg] | Effective plasma concentration [5] [µM] | Cp,u (unbound therapeutic plasma concentration) [5] [µM] | PPB (% bound) [6] [% bound] | EC50 (MES-induced seizures [7]; [15]) [µM] | EC50 (MES-induced seizures [7]; [16]) [µM] | ED50 (MES-induced seizures [7]; rat MES) [mg/kg] | EC50 (MES-induced seizures [7]; [17]) [µM] | Kp ([8]; brain and plasma, oral) | Kp ([9]; brain and plasma, oral) | EC50 (MES-induced seizures [7]; [18]) [µM] | EC50 (MES-induced seizures [7]; [19]) [µM] | EC50 (MES-induced seizures [7]; [20]) [µM] | Kp ([8]; in vivo) | Kp ([9]; in vivo) | other results |
| --- | --- | --- | --- | --- | --- | --- | --- | --- | --- | --- | --- | --- | --- | --- | --- | --- | --- | --- | --- | --- | --- |
| NC(=O)N1c2ccccc2C=Cc2ccccc21 [CBZ, carbamazepine] | 52.4 | 63.9 | 32.5 | 13.8 | 7.04 | 9.67 | 17 to 51 | 4.25 to 12.8 | 75.0 | 4.7 | 4.55 | 4.39 | 1.63 | 2.36 | 1.03 |  |  |  |  |  |  |
| NC(=O)O[C@@H](Cn1ncnn1)c1ccccc1Cl [CNB, cenobamate] |  | 46.1 | 24.9 | 66 | 40.1 | 7.05 | 89.3 to 170 | 35.7 to 68.0 | 60.0 |  |  |  |  |  |  | 8.93 | 10.7 | 15.9 | 0.38 | 0.67 | PPB (% bound) ([10]; published data ref 35): 43.2 % bound; Doses giving significant reduction of MES-induced seizures (fraction seizing) (MES-induced seizures [7]; rat MES, vs vehicle, Kruskal-Wallis/Dunn): 18 mg/kg |
| COC[C@@H](NC(C)=O)C(=O)NCc1ccccc1 [LSM, lacosamide] | 21.8 | 22.9 | 14.8 | 19.3 | 15.6 | 15.2 |  |  | 13.4 |  |  |  |  |  |  | 22.2 | 12.2 | 24.9 | 0.77 | 0.49 |  |
| O=C1NC(=O)C(c2ccccc2)(c2ccccc2)N1 [PHT, phenytoin] | 80.3 | 80.6 | 30.6 | 27.6 | 5.37 | 9.81 | 40 to 79 | 4.00 to 7.90 | 90.0 | 2.66 | 3.2 | 16.9 | 0.89 | 1.11 | 0.83 |  |  |  |  |  |  |
| CCOC(=O)Nc1ccc(NCc2ccc(F)cc2)cc1N [RTG, retigabine] | 86.2 | 85.1 |  | 2.26 | 0.52 |  | 1.98 to 3.99 |  | 80.0 |  |  |  |  |  |  | 0.2 |  | 1.46 |  |  |  |
| CCCC(CCC)C(=O)O [VPA, valproic acid] |  |  |  | 1670 | 1640 | 196 | 346 to 693 | 34.6 to 69.3 | 90.0 |  |  |  |  | 0.38 | 0.24 | 647 | 307 | 1310 |  |  | EC50 (MES-induced seizures [3]; Mus musculus, read-out: EC50 Brain): 630 µM; PPB (% bound) [11]: 66.5 % bound; PPB (% bound) ([10]; published data ref 34): 12.0 % bound |

From article PMC12346480, “The Pharmacokinetic and Pharmacodynamic Relationship of Clinically Used Antiseizure Medications in the Maximal Electroshock Seizure Model in Rodents” (International Journal of Molecular Sciences, 2025)
